The series deals with B16F1 melanoma. The series is described as follows: B16F1 melanoma xenograft in BALB/c mice. Format: in vivo, mouse. On the procedure:
BALB/c mice (6–8 weeks old, 18–22 g) were supplied by Model Animal Research Centre of Nanjing University (Nanjing, China). Mice were maintained under standard specific-pathogen-free (SPF) conditions (21 ± 2 °C and 12-h light: dark cycle). Animal welfare and experimental procedures were carried out strictly in accordance with the Guide for the Care and Use of Laboratory Animals (The Ministry of Science and Technology of China, 2006) and the related ethical regulations of our university. All efforts were made to minimise animals’ suffering and to reduce the number of animals used. Mouse colon cancer cells (CT26) and melanoma cells (B16F1) were cultured and collected by centrifugation (1000 rpm, 5 min) and washed twice with ice-cold PBS. Then cells were diluted to 1 × 10^7/ml and 1 × 10^6 CT26/B16F1 cells (in 0.1 ml PBS) were injected subcutaneously into the right flanks of mice. All mice formed tumours three days after injection. Then mice were randomly distributed into five groups (n = 10/8) according to tumour volumes. 5d ([…], 12.5 mg/kg) were administered (i.g) to each group respectively every day. 5-FU (25 mg/kg) and Cis-platinum (1 mg/kg) were administered (i.p) every three days. Tumour length and tumour width were measured with a Vernier calliper every three days. Tumour volumes were measured and calculated using the equation volume = a × b^2/2, where “a” is the maximal […] and “b” is maximal orthogonal width. After the administration were completed, mice were weighed, euthanized, and tumours were removed and the weight were taken.
For immunohistochemistry staining, the sections were deparaffinized, rehydrated, and washed in 1% PBS-Tween 20, and then treated with 2% hydrogen peroxide, blocked with 3% goat serum (Life Technology, 16210–064) and incubated for 2 h at room temperature with specific primary antibodies. Then the slides were incubated with streptavidin-HRP (Shanghai Gene Company, GK500705) for 40 min, then stained with DAB (Shanghai Gene Company, GK500705) substrate and counter-stained with haematoxylin. Images were acquired by microscopy (Olympus IX51).
In addition, we also utilised a B16F1 melanoma mouse xenograft model to observe the efficacy of compound 5d on the other tumours. Malignant melanoma is a highly invasive tumour and its immunotherapy has been receiving attention in recent years. As mentioned above, B16F1 is a murine melanoma cell line that expresses IDO1. The mouse xenograft model was established by subcutaneously implanting B16F1 melanoma cells into BALB/c mice and treated with 5d (3.125, 6.25, 12.5 mg/kg, i.g, every day) or the positive control Cis-platinum (1 mg/kg, i.p, every other day). Tumour volumes were measured every two days for 11 days.
Figure 13. Compound 5d suppressed melanoma growth in mice. 1 × 10^6 melanoma cells were transplanted subcutaneously into the armpit of the BALB/c mice. Three days after transplantation, mice were randomly allocated to vehicle control or treatment groups (n = 6). Drugs were administered on days 1–11. (A) Tumour volume and mouse body weight (B) were recorded. After sacrifice, solid tumours were separated and weighed (C, D). Data represent mean ± SEM, n = 6, *p < 0.05, **p < 0.01 vs vehicle.
Analogously, we also performed H&E, IHC and TUNEL experiments on the B16F1 melanoma tissues (Figure 14 and 15).

Consider `C=CC(=O)Nc1ccc(S(=O)(=O)NCc2cccc(Cl)c2)cc1` [5d, N-(4-(N-(3-Chlorobenzyl)sulfamoyl)phenyl)acrylamide], for which, for the setting “B16F1 melanoma tissue”, the “IFN-γ expression (IHC)” value is listed as “up-regulating IFN-γ expression”; the “granzyme B (IHC)” value is reported as “stimulating granzyme B secretion”; the “number of tumour cells (H&E, PCNA, TUNEL)” value was “reduce the number of tumour cells by inhibiting proliferation and inducing apoptosis”. In addition, the “tumour growth (tumour volume and tumour weight)” value (BALB/c mice, 3.125, 6.25, 12.5 mg/kg, i.g, every day, 11 days, vs vehicle) is given as “significantly suppressed the growth of tumour in a dose-dependent manner”. Further, the body weight result (BALB/c mice, 3.125-12.5 mg/kg i.g, 11 days) is recorded as “without significant body weight loss”. Besides, where the note is “BALB/c mice, high dose, 11 days”, the “reduction of average volume of tumour” value is given as 34.3%.
